# Test results published in US20200123555A1, “USE OF MALONYLTRANSFERASE GENE” (Suntory Holdings Limited, priority 2017, published 2020).
# Experiments:
# Dm3MaT3 [1] = assay: Enzyme activity, His-tag purified Dm3MaT3 protein solution; assay type: biochemical, chrysanthemum; details: 10 μg Dm3MaT3 protein, 5 μl of 500 μg/ml substrate, malonyl-CoA, 20 minutes at 30° C., pH 7.0
# Experimental: The Escherichia coli strain BL21 introduced with pET32a-Dm3MaT3 described in Example 1 was cultured using the Overnight Express Autoinduction System 1 (Novagen) in accordance with the protocol recommended by the manufacturer. The transformed Escherichia coli was cultured at 37° C. in 8 ml of prepared culture broth until the OD600 value reached 0.5 (approximately 4 hours). This Escherichia coli broth was used as pre-culture broth and added to 200 ml of culture broth followed by culturing overnight at 25° C.
# After culturing overnight, the Escherichia coli broth was centrifuged (1000×g, 4° C., 10 minutes) and the harvested bacterial cells were suspended in 20 ml of extraction buffer (composition: 300 mM KCl, 50 mM KH2PO4, 5 mM imidazole (pH 8.0), 10 μM amidinophenylmethanesulfonyl fluoride hydrochloride (APMSF)) followed by disrupting the Escherichia coli by ultrasonication, centrifuging (1400×g, 4° C., 20 minutes) and recovering the supernatant. The supernatant was passed through a 0.45 μm and subjected to His-Tagged purification using Profinia (Bio-Rad) in accordance with the protocol recommended by the manufacturer. The resulting purified protein solution was centrifuged (7500×g, 4° C., 15 minutes) using Centrifugal Filters (Ultracel-10K, Amicon Ultra) and the concentrated protein solution was used as “Dm3MaT3 protein solution”. The Avanti HP-26XP (rotor: JA-2) (Beckman Coulter) was used for centrifugation.
# A reaction solution, obtained by mixing 30 μl of Dm3MaT3 protein solution (10 μg), 5 μl of 1 mg/ml malonyl-CoA, 5 μl of 1 M KPB (pH 7.0), 5 μl of 500 μg/ml luteolin 7-glucoside (dissolved in a 50% aqueous acetonitrile solution containing 0.1% TFA) and adjusting to a volume of 100 μl with water on ice, was held for 20 minutes at 30° C. Subsequently, 100 μl of stop buffer (90% aqueous acetonitrile solution containing 0.1% TFA) were added to stop the reaction followed by analyzing the reaction solution by high-performance liquid chromatography (Prominence, Shimadzu Corp.). Flavone was detected at 330 nm using the Shimadzu PDA SPD-M20A for the detector. […]
# Dm3MaT3 [2] = assay: Malonyl transfer activity of flower petal crude enzyme solution from genetically engineered rose introduced with Dm3MaT3 gene; assay type: biochemical; details: 2.5 μl of 1 mM apigenin, malonyl-CoA, 20 minutes at 30° C.; genetically engineered rose petals
# Text: In order to confirm that the Dm3MaT3 gene of the present invention encodes a protein having activity that transfers a malonyl group to position 6 of the glucose at position 7 of flavone 7-glucoside in plants, a binary vector pSPB7136 was constructed to express Dm3MaT3 in plants (see FIG. 8) and subsequently introduced into a rose (variety: Ocean Song). pBINPLUS (Van Engel et al., Transgenic Research 4, 288) was used for the basic skeleton, E1235S promoter (Mitsuhara et al., (1996) Plant Cell Physiol., 37, p. 49) was used for the promoter expressing Dm3MaT3 gene, and HSP terminator (Plant Cell Physiol. (2010) 51, 328-332) was used for the terminator in pSPB7136.
# A crude enzyme solution was prepared from the petals of a rose strain in which was synthesized the transcription product of full-length cDNA Dm3MaT3 followed by an evaluation of the presence or absence of activity transferring a malonyl group to position 6 of the glucose at position 7 of flavone 7-glucoside. […]
# A reaction solution, obtained by mixing 20 μl of the flower petal crude enzyme solution, 5 μl of 1 mg/ml malonyl-CoA, 5 μl of 1 M KPB (pH 7.0) and 2.5 μl of 1 mM apigenin (dissolved in 50% aqueous acetonitrile solution containing 0.1% TFA) and adjusting to a volume of 100 μl with water on ice, was held for 20 minutes at 30° C. […] Flavone was detected at 330 nm using the Shimadzu PDA SPD-M20A for the detector. […]
# Dm3MaT3 [3] = assay: Enzyme activity, protein solution crudely extracted from Escherichia coli expressing Dm3MaT3; assay type: biochemical, chrysanthemum; details: substrate with malonyl-CoA
# Experimental: The Shim-Pack ODS 150 mm×4.6 mm column (Shimadzu Corp.) was used for the column. […] The flow rate was 0.6 ml/min.
# Dm3MaT1 = assay: Enzyme activity, protein solution crudely extracted from Escherichia coli expressing Dm3MaT1; assay type: biochemical, chrysanthemum; details: substrate with malonyl-CoA, 20 minutes at 30° C., pH 7.0, detection 330 nm
# Dm3MaT2 = assay: Enzyme activity, protein solution crudely extracted from Escherichia coli expressing Dm3MaT2; assay type: biochemical, chrysanthemum; details: substrate with malonyl-CoA, 20 minutes at 30° C., pH 7.0, detection 330 nm
structure (smiles),measurement,setting,value
O=c1cc(-c2ccc(O)cc2)oc2cc(O[C@@H]3O[C@H](CO)[C@@H](O)[C@H](O)[C@H]3O)cc(O)c12 [apigenin 7-glucoside],reaction rate (percentage of substrate converted),Dm3MaT3 [1],85.80%
O=c1cc(-c2ccc(O)cc2)oc2cc(O)cc(O)c12 [apigenin],"peak corresponding to 7-malonylglucoside, share of the apigenin compounds in the enzyme reaction solution",Dm3MaT3 [2],2.04%
OC[C@H]1O[C@@H](Oc2cc3c(O)cc(O)cc3[o+]c2-c2ccc(O)c(O)c2)[C@H](O)[C@@H](O)[C@@H]1O [cyanidin 3-glucoside],amount of cyanidin 3-glucoside consumed in comparison with Dm3MaT1,Dm3MaT3 [3]; detection 520 nm,clearly less
same,peak corresponding to cyanidin 3-malonylglucoside (HPLC),Dm3MaT3 [3]; detection 520 nm,detected
O=c1cc(-c2ccc(O[C@@H]3O[C@H](CO)[C@@H](O)[C@H](O)[C@H]3O)c(O)c2)oc2cc(O)cc(O)c12 [luteolin 4′-glucoside],reaction rate (percentage of substrate converted),Dm3MaT3 [1],34.81%
O=c1cc(-c2ccc(O)c(O)c2)oc2cc(O[C@@H]3O[C@H](CO)[C@@H](O)[C@H](O)[C@H]3O)cc(O)c12 [luteolin 7-glucoside],peak corresponding to luteolin 7-malonylglucoside (HPLC),"Dm3MaT3 [3]; 20 minutes at 30° C., pH 7.0, detection 330 nm",detected
same,peak corresponding to luteolin 7-malonylglucoside (HPLC),Dm3MaT1,not detected
same,reaction rate (percentage of substrate converted),Dm3MaT3 [1],81.13%
same,peak corresponding to luteolin 7-malonylglucoside (HPLC),Dm3MaT2,not detected
